Read-outs that look alike come from different tables or passages of the source.
Assays:
[1] = Stability experiments for solid forms of Compound 1 (temperature and humidity, XRPD); assay type: physicochemical
Excerpt: The physical stability of polymorph Form A was characterized. […] Samples of Form A exposed to 53, 75, and 85% relative humidity at ambient temperature (10 days) were also unchanged, as determined by XRPD.
The physical stability of polymorph Form B was characterized.
The physical stability of the amorphous material was characterized.

Phytophthora infestans [2] = assay type: in vivo
Phytophthora infestans [3] = assay type: in vivo; details: Table E
[4] = test system: Pseudoperonospora cubensis; test: Test J: cucumber downy mildew, spray before inoculation, cucumber seedlings, mixtures with Colby expected values; assay type: in vivo; details: Table C
Excerpt: General protocol for preparing test compositions for Tests I-K: Amisulbrom was formulated and ametoctradin was obtained as unformulated, technical-grade materials. Compound 1 were formulated as an oil dispersion containing a mixture of POE (polyoxyethylene) 40 sorbitol hexaoleate, POE 20 sorbitan trioleate, and alkyl-peg resin surfactants in a liquid carrier consisting of a distilled C18 fatty acid methyl ester. Ametoctradin was first dissolved in acetone and then suspended at the desired concentration (in ppm) in acetone and purified water (50/50 mix by volume) containing 250 ppm of the surfactant Trem® 014 (polyhydric alcohol esters). Amisulbrom was dispersed in sufficient water to give the desired concentration, and neither organic solvent nor surfactant was added to the suspension. The resulting test mixtures were then used in Tests I-K. Spraying a 200 ppm test mixture to the point of run-off on the test plants was the equivalent of a rate of 800 g/ha. The tests were replicated three times and the results reported as the mean average of the three replicates.
The presence of a synergistic effect between two active ingredients was established with the aid of the Colby equation (see Colby, S. R. “Calculating Synergistic and Antagonistic Responses of Herbicide Combinations”, Weeds, (1967), 15, 20-22):
Using the method of Colby, the presence of a synergistic interaction between two active ingredients is established by first calculating the predicted activity, p, of the mixture based on activities of the two components applied alone. If p is lower than the experimentally established effect, synergism has occurred. In the equation above, A is the fungicidal activity in percentage control of one component applied alone at rate x. The B term is the fungicidal activity in percentage control of the second component applied at rate y. The equation estimates p, the expected fungicidal activity of the mixture of A at rate x with B at rate y if their effects are strictly additive and no interaction has occurred.
The test mixture was sprayed to the point of run-off on cucumber seedlings. The following day the seedlings were inoculated with a spore suspension of Pseudoperonospora cubensis (the causal agent of cucumber downy mildew) and incubated in saturated atmosphere at 20° C. for 24 h, and moved to a growth chamber at 20° C. for 6 days, after which time disease ratings were made.
Results for Tests I to K are given in Tables C-E. Each table corresponds to a set of evaluations performed together at the same time. In each table, a rating of 100 indicates 100% disease control and a rating of 0 indicates no disease control (relative to the controls). Columns labeled “Obsd” indicate the average of results observed from three replications. Columns labeled “Exptd” indicate the expected value for each treatment mixture using the Colby equation.

[5] = Relative stability experiments for polymorph Form A and Form B (DSC heat of fusion rule, competitive interconversion); assay type: physicochemical
Experimental: Differential scanning calorimetry was performed on a Thermal Analysis Q2000 Differential Scanning Calorimeter. A sample (2.3 mg) was placed in an aluminum DSC pan. The sample cell was heated under a nitrogen purge at 10° C./minute. Indium metal was used as the calibration standard.
The relative stability of polymorphic Forms A and B of Compound 1 was characterized with Differential Scanning Calorimetry and a competitive interconversion experiment. Phase transitions of solids can be thermodynamically reversible or irreversible. Crystalline polymorphs which transform reversibly at a specific transition temperature (Ttr) are called enantiotropic polymorphs. If the crystalline polymorphs are not interconvertable, the system is monotropic (i.e. one polymorph is thermodynamically stable relative to the other over the entire temperature range up to melting). The relationship between forms can be determined by the application of the heat of fusion rule (Burger, A.; Ramberger, R. Mikrochim. Acta [Wein], 1979 II, 259-271). The rule states that if the higher melting form has the lower heat of fusion, then the two forms are enantiotropic. Otherwise, they are monotropic.
To support this conclusion, a competitive interconversion experiment between polymorph Forms A and B was performed in ethanol at room temperature. […]

[6] = Table C, component (b) alone 0.08 ppm
[7] = Table C, component (b) alone 0.4 ppm
[8] = Table C, component (b) alone 2 ppm
[9] = Table C, component (b) alone 10 ppm
[10] = Table C, component (b) alone 40 ppm
[11] = Table D, component (b) alone 0.08 ppm
[12] = Table D, component (b) alone 0.4 ppm
[13] = Table D, component (b) alone 2 ppm
[14] = Table D, component (b) alone 10 ppm

With `Cc1cc(C(F)(F)F)nn1CC(=O)N1CCC(c2nc(C3=NOC(c4c(F)cccc4F)C3)cs2)CC1` (racemic) [polymorph Form A, 1-[4-[4-[5-(2,6-difluorophenyl)-4,5-dihydro-3-isoxazolyl]-2-thiazolyl]-1-piperidinyl]-2-[5-methyl-3-(trifluoromethyl)-1H-pyrazol-1-yl]ethanone] the “physical stability by XRPD” value ([1]; exposed to 53, 75, and 85% relative humidity at ambient temperature (10 days)) was “unchanged”, the “physical stability by XRPD” value ([1]; maintained at 40, 60, and 80° C. for 4 days) was “remained unchanged” and the “stability of the pure solid form (summary of Characterization Example 4)” value [1] was “physically stable and non-hydrated”.
With `Cc1c(Br)c2ccc(F)cc2n1S(=O)(=O)c1ncn(S(=O)(=O)N(C)C)n1` [Amisulbrom, amisulbrom] the “Test I Obsd” value (Phytophthora infestans [2]; [6]) was 57%, the “Test I Obsd” value (Phytophthora infestans [2]; [7]) was 52% and the “Test I Obsd” value (Phytophthora infestans [2]; [8]) was 82%. For the same molecule, the “Test I Obsd” value (Phytophthora infestans [2]; [9]) was 100%, the “Test I Obsd” value (Phytophthora infestans [2]; [10]) was 100% and the “Test I Obsd” value (Phytophthora infestans [2]; Table D, component (b) alone 0.016 ppm) was 0%. For the same molecule, the “Test I Obsd” value (Phytophthora infestans [2]; [11]) was 9%, the “Test I Obsd” value (Phytophthora infestans [2]; [12]) was 63% and the “Test I Obsd” value (Phytophthora infestans [2]; [13]) was 85%. For the same molecule, the “Test I Obsd” value (Phytophthora infestans [2]; [14]) was 86%, the “Test K Obsd” value (Phytophthora infestans [3]; component (b) alone 0.4 ppm) was 0% and the “Test K Obsd” value (Phytophthora infestans [3]; component (b) alone 2 ppm) was 0%. The “Test K Obsd” value (Phytophthora infestans [3]; component (b) alone 10 ppm) was 0%, the “Test K Obsd” value (Phytophthora infestans [3]; component (b) alone 40 ppm) was 0% and the “Test K Obsd” value (Phytophthora infestans [3]; component (b) alone 200 ppm) was 0%. The “Test J Obsd” value ([4]; component (b) alone 0.08 ppm) was 0%, the “Test J Obsd” value ([4]; component (b) alone 0.4 ppm) was 0% and the “Test J Obsd” value ([4]; component (b) alone 2 ppm) was 95%. The “Test J Obsd” value ([4]; component (b) alone 10 ppm) was 100% and the “Test J Obsd” value ([4]; component (b) alone 40 ppm) was 100%.
With `Cc1cc(C(F)(F)F)nn1CC(=O)N1CCC(c2nc(C3=NOC(c4c(F)cccc4F)C3)cs2)CC1` (racemic) [polymorph Form B, 1-[4-[4-[5-(2,6-difluorophenyl)-4,5-dihydro-3-isoxazolyl]-2-thiazolyl]-1-piperidinyl]-2-[5-methyl-3-(trifluoromethyl)-1H-pyrazol-1-yl]ethanone] the “relative stability by heat of fusion rule from DSC data” value ([5]; DSC data of Characterization Example 3, forms monotropically related) was “most stable form throughout the temperature range up to the melt”, the “relative stability, competitive interconversion experiment” value ([5]; equal amounts of Forms A and B in saturated ethanol, room temperature, stirred 4 days, solids identified by XRPD) was “more stable than polymorph Form A” and the “physical stability by XRPD” value ([1]; exposed to 85% relative humidity at ambient temperature (10 days)) was “unchanged”. For the same molecule, the “physical stability by XRPD” value ([1]; maintained at 40° C. and 25° C. for 4 days) was “remained unchanged”.
For `Cc1cc(C(F)(F)F)nn1CC(=O)N1CCC(c2nc(C3=NOC(c4c(F)cccc4F)C3)cs2)CC1` (stereo not drawn) [Amorphous Compound 1, 1-[4-[4-[5-(2,6-difluorophenyl)-4,5-dihydro-3-isoxazolyl]-2-thiazolyl]-1-piperidinyl]-2-[5-methyl-3-(trifluoromethyl)-1H-pyrazol-1-yl]ethanone], the “physical stability by XRPD” value ([1]; elevated temperatures (60, 80 and 100° C.) and humidities (75 and 85% relative humidity) for 10-12 days) was “remained unchanged” and the “stability of the pure solid form (summary of Characterization Example 4)” value [1] was “stable and non-hydrated”.
For `CCCCCCCCc1c(CC)nc2ncnn2c1N` [Ametoctradin, ametoctradin], the “Test I Obsd” value (Phytophthora infestans [2]; [6]) was 8%, the “Test I Obsd” value (Phytophthora infestans [2]; [7]) was 23% and the “Test I Obsd” value (Phytophthora infestans [2]; [8]) was 63%. For the same molecule, the “Test I Obsd” value (Phytophthora infestans [2]; [9]) was 83%, the “Test I Obsd” value (Phytophthora infestans [2]; [10]) was 83% and the “Test I Obsd” value (Phytophthora infestans [2]; [11]) was 9%. The “Test I Obsd” value (Phytophthora infestans [2]; [12]) was 0%, the “Test I Obsd” value (Phytophthora infestans [2]; [13]) was 0% and the “Test I Obsd” value (Phytophthora infestans [2]; [14]) was 94%. The “Test I Obsd” value (Phytophthora infestans [2]; Table D, component (b) alone 40 ppm) was 93%, the “Test K Obsd” value (Phytophthora infestans [3]; component (b) alone 0.4 ppm) was 0% and the “Test K Obsd” value (Phytophthora infestans [3]; component (b) alone 2 ppm) was 0%. For the same molecule, the “Test K Obsd” value (Phytophthora infestans [3]; component (b) alone 10 ppm) was 0%, the “Test K Obsd” value (Phytophthora infestans [3]; component (b) alone 40 ppm) was 0% and the “Test K Obsd” value (Phytophthora infestans [3]; component (b) alone 200 ppm) was 0%. The “Test J Obsd” value ([4]; component (b) alone 0.08 ppm) was 0%, the “Test J Obsd” value ([4]; component (b) alone 0.4 ppm) was 0% and the “Test J Obsd” value ([4]; component (b) alone 2 ppm) was 0%. The “Test J Obsd” value ([4]; component (b) alone 10 ppm) was 26% and the “Test J Obsd” value ([4]; component (b) alone 40 ppm) was 95%.
In the case of `Cc1cc(C(F)(F)F)nn1CC(=O)N1CCC(c2nc(C3=NOC(c4c(F)cccc4F)C3)cs2)CC1` (racemic) [Compound 1, 1-[4-[4-[5-(2,6-difluorophenyl)-4,5-dihydro-3-isoxazolyl]-2-thiazolyl]-1-piperidinyl]-2-[5-methyl-3-(trifluoromethyl)-1H-pyrazol-1-yl]ethanone], the “Test I Obsd” value (Phytophthora infestans [2]; Table C, Compound 1 alone 0.00001 ppm) is reported as 39%, the “Test I Obsd” value (Phytophthora infestans [2]; Table C, Compound 1 alone 0.0001 ppm) is reported as 63% and the “Test I Obsd” value (Phytophthora infestans [2]; Table C, Compound 1 alone 0.001 ppm) is reported as 72%. The “Test I Obsd” value (Phytophthora infestans [2]; Table C, Compound 1 alone 0.01 ppm) was 100%, the “Test I Obsd” value (Phytophthora infestans [2]; Table C, Compound 1 alone 0.1 ppm) was 100% and the “Test I Obsd” value (Phytophthora infestans [2]; Table D, Compound 1 alone 0.00001 ppm) was 0%. For the same molecule, the “Test I Obsd” value (Phytophthora infestans [2]; Table D, Compound 1 alone 0.0001 ppm) was 0%, the “Test I Obsd” value (Phytophthora infestans [2]; Table D, Compound 1 alone 0.001 ppm) was 80% and the “Test I Obsd” value (Phytophthora infestans [2]; Table D, Compound 1 alone 0.01 ppm) was 93%. For the same molecule, the “Test I Obsd” value (Phytophthora infestans [2]; Table D, Compound 1 alone 0.1 ppm) was 100%, the “Test K Obsd” value (Phytophthora infestans [3]; Compound 1 alone 0.001 ppm) was 0% and the “Test K Obsd” value (Phytophthora infestans [3]; Compound 1 alone 0.01 ppm) was 17%. The “Test K Obsd” value (Phytophthora infestans [3]; Compound 1 alone 0.1 ppm) was 80%, the “Test K Obsd” value (Phytophthora infestans [3]; Compound 1 alone 1 ppm) was 99% and the “Test K Obsd” value (Phytophthora infestans [3]; Compound 1 alone 10 ppm) was 100%. For the same molecule, the “Test J Obsd” value ([4]; Compound 1 alone 0.00001 ppm) was 17%, the “Test J Obsd” value ([4]; Compound 1 alone 0.0001 ppm) was 47% and the “Test J Obsd” value ([4]; Compound 1 alone 0.001 ppm) was 40%. The “Test J Obsd” value ([4]; Compound 1 alone 0.01 ppm) was 94% and the “Test J Obsd” value ([4]; Compound 1 alone 0.1 ppm) was 100%.
